Results as given in patent publication US20240043615A1, “AMINO ACID POLYMER-PLATINUM ANTICANCER DRUG CONJUGATES” (priority 2020, published 2024).
Entries after “also recorded” stand apart in the source; their conditions may differ.

Legend:
[1] = tested on: A2780 cisplatin-resistant cells (A2780-Cis); assay: Cytotoxicity in cisplatin-resistant A2780 cells; format: cell-based, human; conditions: different concentrations of Pt, 30 min
Experimental: (§1) A2780 cisplatin-resistant cells (A2780-Cis) and multiple drug resistant MDA-MB-231 cells (MDA-MB-231/MDR) were employed as models of drug resistant cells. 5×10^3 A2780-Cis or MDA-MB-231/MDR cells/well were seeded in a 96-well plate and cultured overnight. […] The results of this study are found in FIGS. 8A and 8B.

[2] = tested on: multiple drug resistant MDA-MB-231 cells (MDA-MB-231/MDR); assay: Cytotoxicity in multiple drug resistant MDA-MB-231 cells; format: cell-based, human; conditions: different concentrations of Pt, 30 min
Experimental: as §1

[3] = tested on: CT26 cells; conditions: for cell viability of CT26 cells: varying platinum concentration, 30 min; for cell viability of CT26 cells with respect to incubation time: 25 μg Pt/mL, different time points, CCK8
Experimental: 5×10^3 CT26 cells/well were seeded in a 96-well plate and cultured overnight. […] Cell viability was detected by CCK8 assay. The concentration of each of the platinum derivatives was calculated based on platinum concentration.
(§2) CT26, A2780 or MDA-MB-231 cells were seeded in a 96-well plate and cultured overnight.
The concentration of each of the platinum derivatives was calculated based on platinum concentration.

[4] = tested on: CT26 tumor; assay: Anti-tumor efficacy, CT26 tumor-bearing mice; format: in vivo; conditions: i.v.
[5] = tested on: CT26 cells; assay: LysoTracker flow cytometry (lysosomal rupture); format: cell-based, mouse; conditions: treatment 1 h; LysoTracker deep red 100 nM 40 min
Experimental: CT26 cells were seeded in a 6-well plate and cultured overnight. […] Cells were then stained with LysoTracker deep red (100 nM) for 40 min. Cells were analyzed by flow cytometry.

[6] = tested on: CT26 cells; conditions: short-time treatment
[7] = tested on: CT26 cells; assay: Annexin-V/propidium iodide flow cytometry (apoptosis/necrosis); format: cell-based, mouse; conditions: 15 μg (Pt)/mL, different times
Experimental: CT26 cells were seeded in a 6-well plate and cultured overnight. […] Apoptosis: Annexin V^+ PI^−, Necrosis: PI^+.

[8] = tested on: A2780 human ovarian cancer cells; assay: Cytotoxicity in A2780 cells; format: cell-based; conditions: varying platinum concentration, 30 min
Experimental: as §2

[9] = tested on: CT26 cells; conditions: dynasore, chlorpromazine, genistein, cytochalasin D 40 min, then 25 μg (Pt)/mL for 30 min
[10] = tested on: A2780 tumor; assay: Anti-tumor efficacy, A2780 tumor-bearing mice; format: in vivo; conditions: i.v.
[11] = tested on: MDA-MB-231 human breast cancer cells; assay: Cytotoxicity in MDA-MB-231 cells; format: cell-based; conditions: varying platinum concentration, 30 min
Experimental: as §2

[12] = tested on: A2780 cisplatin-resistant tumor; conditions: i.v.; control 5% glucose
[13] = tested on: CT26 tumor; conditions: CT26-tumor bearing mice, i.v., same dosage of oxaliplatin and P(G-A)-Asp-Pt
[14] = Body weight change in mice; conditions: single 8 mg (Pt)/kg injection
[15] = Plasma pharmacokinetics in tumor-free mice (Pt by ICP-OES); conditions: 4 mg (Pt)/kg Pt-equivalent dosage
Experimental: The dosage was calculated based on Pt. Plasma samples were collected at different time points. Pt content was measured by ICP-OES.

[16] = Spleen toxicity evaluation in mice; conditions: mice after treatment
[17] = same Pt dosage of oxaliplatin and P(G-A)-Asp-Pt, control 5% glucose

| Compound | cell viability of A2780-Cis cells [1] | cell viability of MDA-MB-231/MDR cells [2] | cell viability of CT26 cells [3] | CT26 tumor growth [4, 17] | LysoTracker signal (MFI) in CT26 cells [5] | cell viability of A2780 cells [8] | cell viability of CT26 cells with respect to incubation time [3] | A2780 tumor growth [10, 17] | cell viability of MDA-MB-231 cells [11] | A2780-Cis tumor growth [12] | further results |
| --- | --- | --- | --- | --- | --- | --- | --- | --- | --- | --- | --- |
| N.N.[Cl][Pt][Cl] [cisplatin] | little effect | little effect | – | – | – | – | – | – | – | – | – |
| Poly L-Glutamic and poly L-Aspartic acid (Glu:Asp = 7:3)-Platinum [P(G-A)-Pt] | – | – | best cytotoxicity to CT26 cells compared to the other platinum derivatives tested | – | – | – | – | – | – | – | – |
| Poly L-Glutamic and poly L-Aspartic acid (Glu:Asp = 7:3)-L-Aspartic-Platinum [P(G-A)-Asp-Pt] | able to kill these drug resistant cells in 30 min | able to kill these drug resistant cells in 30 min | able to kill these cancer cells; also recorded: best cytotoxicity to CT26 cells compared to the other platinum derivatives tested; also recorded: better efficacy that P(G-A)-Glu-Pt and P(G-A)-D-Asp-Pt | significantly inhibited tumor growth compared to the same oxaliplatin dosage | reduced LysoTracker signal | able to kill these cancer cells | induce rapid cell death in as short as 30 min | significantly inhibited tumor growth compared to the same oxaliplatin dosage | able to kill these cancer cells | significantly prohibited A2780-Cis tumor growth | CT26 tumor growth ([4]; high dose): completely inhibited the growth; mice with complete response, CT26 tumors ([4]; high dose): over 40%; morphological changes in CT26 cells [6]: Obvious cancer cell swelling and disrupted plasma membrane; necrosis (PI+) of CT26 cells [7]: triggered cancer cell necrosis quickly in 30 min; viability of CT26 cells pre-treated with endocytosis/micropinocytosis inhibitors [9]: partially restore cell viability; IC50 in CT26 cells in different incubation times ([3]; 24 and 48 h, compared with oxaliplatin): lower IC50; A2780 tumor growth ([10]; high dose): completely inhibited the growth; mice with complete response, A2780 tumors ([10]; high dose): over 40% |
| O=C1[O][Pt]2([NH][C@@H]3CCCC[C@H]3[NH]2)[O]C1=O [oxaliplatin, reference compound] | little effect | little effect | little effect | partially slowed CT26 and A2780 tumor growth | little effect | little effect | little effect within that time interval | partially slowed CT26 and A2780 tumor growth | little effect | partial anti-tumor efficacy on A2780-Cis tumors | apoptosis (Annexin V+ PI−) of CT26 cells [7]: induced cell apoptosis gradually from 0.5 h to 18 h; Pt concentration in tumors versus time [13]: rapidly dropped over time; body weight decrease [14]: more than 15%; Pt concentration in plasma versus time (circulation time) [15]: quickly cleared from plasma; spleen appearance and weight [16]: dramatically shrunken with decreased weight |
